Source: patent publication US10611747B2, “Pyrone based compounds for treating bacterial infections” (FORGE THERAPEUTICS, INC., priority 2015, dated 2020)
Converted amounts (≈) assume the structure as drawn. Read-outs that look alike come from different tables or passages of the source.

Experiments:
[1] = tested on: S. aureus ATCC 29213; assay: Bacterial susceptibility testing (MIC, broth microdilution); type: cell-based; details: Staphylococcus aureus
Description: (§1) Minimal inhibitory concentrations (MIC) were determined by the broth microdilution method in accordance with the Clinical and Laboratory Standards Institute (CLSI) guidelines. In brief, organism suspensions were adjusted to a 0.5 McFarland standard to yield a final inoculum between 3×10^5 and 7×10^5 colony-forming units (CFU)/mL. Drug dilutions and inocula were made in sterile, cation adjusted Mueller-Hinton Broth (Beckton Dickinson). An inoculum volume of 100 μL was added to wells containing 100 μL of broth with 2-fold serial dilutions of drug. All inoculated microdilution trays were incubated in ambient air at 35° C. for 18-24 h. […] Performance of the assay was monitored by the use of laboratory quality-control strains and levofloxacin, a compound with a defined MIC spectrum, in accordance with CLSI guidelines.

[2] = tested on: E. coli imp mutant; assay: as above; type: cell-based; details: Escherichia coli, read-out: MIC E. coli imp mutant
Description: as §1

[3] = tested on: P. aeruginosa 209; assay: as above; type: cell-based
Description: as §1

[4] = tested on: P. aeruginosa 210 delta mexAB-OprM; assay: as above; type: cell-based; details: Pseudomonas aeruginosa, read-out: MIC P. aeruginosa 210 delta mexAB-OprM
Description: as §1

[5] = tested on: E. coli ATCC 25922; assay: as above; type: cell-based; details: Escherichia coli
Description: as §1

[6] = tested on: E. coli delta tolC; assay: as above; type: cell-based; details: Escherichia coli, 24 h, read-out: MIC E. coli delta tolC
Description: as §1

[7] = tested on: E. coli BW25113; assay: as above; type: cell-based; details: Escherichia coli, no FBS, 35° C., 18-24 h
Description: as §1

[8] = molecular target: LpxC (Klebsiella pneumoniae subsp. pneumoniae, UniProt A6T4N9); assay: Inhibition assay against Klebsiella pneumonae LpxC (LC-MS/MS); type: biochemical; details: LpxC 0.2 nM Kpn, 22° C., 60 minutes
Description: LpxC inhibition assays were performed using liquid chromatography with tandem mass spectrometry. Assays were performed, in duplicate, in opaque, 96-well microplates in a total assay volume of 50 μL. The incubation mixture contained: LpxC (0.2 nM Kpn), 0.8 μM UDP-3-O—[(R)-3-hydroxymyristoyl]-N-acetyl-glucosamine, 40 mM Bis-Tris/HCI buffer (pH 5.9), 5 mM sodium phosphate buffer (NaH2PO4/Na2HPO4, pH 7.0), 1 mM DTT, 0.1% (w/v) fatty-acid free BSA, 10% DMSO (v/v, with or without compound). The reactions were incubated at 22° C. for 60 minutes (with mild shaking), then terminated by the addition of 25 μL 0.25 N HCl. Samples were analyzed using a LC-MS system to measure native LpxC substrate and reaction product. IC50 analysis was done using GeneData Screener and a four parameter variable slope normalized to controls. Test compounds were prepared as 8-point dose-response curves (factor dilution 2) in triplicate, starting at 1 μM final concentration. Each assay plate included 6 wells used for the Z′ factor calculation, 3 as a positive control for the assay and 3 as a negative control. The robustness was calculated as the median Z′ factor for 5 plates.

[9] = ATCC29213, broth microdilution, 35° C., 18-24 h, read-out: MIC S. aureus ATCC 29213
[10] = Pseudomonas aeruginosa, 209, broth microdilution, 35° C., 18-24 h, read-out: MIC P. aeruginosa 209
[11] = ATCC25922, no FBS, broth microdilution, 35° C., 18-24 h, read-out: MIC E. coli ATCC 25922-no FBS
[12] = ATCC29213, read-out: MIC S. aureus ATCC 29213
[13] = ATCC25922, read-out: MIC E. coli ATCC 25922-no FBS

Sequence of LpxC (A6T4N9 whole entry): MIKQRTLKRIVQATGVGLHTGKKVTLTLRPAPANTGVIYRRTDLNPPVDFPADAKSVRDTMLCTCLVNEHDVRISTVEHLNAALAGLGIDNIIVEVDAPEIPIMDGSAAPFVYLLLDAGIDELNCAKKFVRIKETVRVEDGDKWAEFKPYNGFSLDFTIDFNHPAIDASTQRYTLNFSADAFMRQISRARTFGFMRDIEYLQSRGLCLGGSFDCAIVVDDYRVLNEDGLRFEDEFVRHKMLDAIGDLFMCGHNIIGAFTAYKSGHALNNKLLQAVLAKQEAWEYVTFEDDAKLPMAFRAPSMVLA

SMILES: CNC(=O)c1ccc(C#CC#Cc2ccc(NCc3occc(=O)c3O)cc2)cc1 [Compound 35]
- MIC [1, 9]: > 32 µg/mL
- MIC [2]: 1 to 8 µg/mL (≈ 2.51 to 20.1 µM)
- MIC [3, 10]: > 32 µg/mL
- MIC [4]: > 32 µg/mL
- MIC [5, 11]: 1 to 8 µg/mL (≈ 2.51 to 20.1 µM)
- MIC [6]: < 1 µg/mL
- MIC [7]: 1 to 8 µg/mL (≈ 2.51 to 20.1 µM)
- IC50 [8]: > 100 nM

SMILES: O=C(c1ccc(C#CC#Cc2ccc(NCc3occc(=O)c3O)cc2)cc1)N1CCOCC1 [Compound 32]
- MIC [1, 9]: > 32 µg/mL
- MIC [2]: 1 to 8 µg/mL (≈ 2.2 to 17.6 µM)
- MIC [3, 10]: > 32 µg/mL
- MIC [4]: > 32 µg/mL
- MIC [5, 11]: 1 to 8 µg/mL (≈ 2.2 to 17.6 µM)
- MIC [6]: < 1 µg/mL
- MIC [7]: 1 to 8 µg/mL (≈ 2.2 to 17.6 µM)
- IC50 [8]: 10 to 100 nM

SMILES: O=C(c1ccc(C#CC#Cc2ccc(NCc3occc(=O)c3O)cc2)cc1)N1CC(O)C1 [Compound 39]
- MIC [1, 9]: > 32 µg/mL
- MIC [2]: 1 to 8 µg/mL (≈ 2.27 to 18.2 µM)
- MIC [3, 10]: > 32 µg/mL
- MIC [4]: 8 to 32 µg/mL (≈ 18.2 to 72.7 µM)
- MIC [5, 11]: 1 to 8 µg/mL (≈ 2.27 to 18.2 µM)
- MIC [6]: < 1 µg/mL
- MIC [7]: 1 to 8 µg/mL (≈ 2.27 to 18.2 µM)
- IC50 [8]: 10 to 100 nM

SMILES: CN1CCN(C(=O)c2ccc(C#CC#Cc3ccc(NCc4occc(=O)c4O)cc3)cc2)CC1 [Compound 40]
- MIC [1, 9]: > 32 µg/mL
- MIC [2]: < 1 µg/mL
- MIC [3, 10]: > 32 µg/mL
- MIC [4]: 8 to 32 µg/mL (≈ 17.1 to 68.4 µM)
- MIC [5, 11]: 1 to 8 µg/mL (≈ 2.14 to 17.1 µM)
- MIC [6]: < 1 µg/mL
- MIC [7]: 1 to 8 µg/mL (≈ 2.14 to 17.1 µM)
- IC50 [8]: 10 to 100 nM

SMILES: O=C(O)c1ccc(C#CC#Cc2ccc(NCc3occc(=O)c3O)cc2)cc1 [Compound 38]
- MIC [1, 9]: > 32 µg/mL
- MIC [2]: < 1 µg/mL
- MIC [3, 10]: > 32 µg/mL
- MIC [4]: 8 to 32 µg/mL (≈ 20.8 to 83 µM)
- MIC [5, 11]: 1 to 8 µg/mL (≈ 2.59 to 20.8 µM)
- MIC [6]: < 1 µg/mL
- MIC [7]: < 1 µg/mL
- IC50 [8]: > 100 nM

SMILES: O=C(c1ccc(C#CC#Cc2ccc(NCc3occc(=O)c3O)cc2)cc1)N1C[C@H]2C[C@@H]1CO2 [Compound 36]
- MIC [1, 9]: > 32 µg/mL
- MIC [2]: 1 to 8 µg/mL (≈ 2.14 to 17.1 µM)
- MIC [3, 10]: > 32 µg/mL
- MIC [4]: > 32 µg/mL
- MIC [5, 11]: 8 to 32 µg/mL (≈ 17.1 to 68.6 µM)
- MIC [6]: < 1 µg/mL
- MIC [7]: 1 to 8 µg/mL (≈ 2.14 to 17.1 µM)

SMILES: COC1CN(C(=O)c2ccc(C#CC#Cc3ccc(NCc4occc(=O)c4O)cc3)cc2)C1 [Compound 51]
- MIC [1, 9]: > 32 µg/mL
- MIC [2]: 1 to 8 µg/mL (≈ 2.2 to 17.6 µM)
- MIC [3, 10]: > 32 µg/mL
- MIC [4]: > 32 µg/mL
- MIC [5, 11]: 1 to 8 µg/mL (≈ 2.2 to 17.6 µM)
- MIC [6]: < 1 µg/mL
- MIC [7]: 1 to 8 µg/mL (≈ 2.2 to 17.6 µM)

SMILES: CNC(=O)C#CC#Cc1ccc(NCc2oc(CS(C)(=O)=O)cc(=O)c2O)cc1 [Compound 6, 5-(4-(((3-hydroxy-6-((methylsulfonyl)methyl)-4-oxo-4H-pyran-2-yl)methyl)amino)phenyl)-N-methylpenta-2,4-diynamide]
- MIC [1, 12]: > 32 µg/mL
- MIC [2]: > 32 µg/mL
- MIC ([3]; Pseudomonas aeruginosa, 209, read-out: MIC P. aeruginosa 209): > 32 µg/mL
- MIC [4]: > 32 µg/mL
- MIC [5, 13]: > 32 µg/mL
- MIC [6]: > 32 µg/mL
- MIC [7]: > 32 µg/mL

SMILES: O=c1ccoc(CNc2ccc(C#CC#Cc3ccc(CN4CCOCC4)cc3)cc2)c1O [Compound 47]
- MIC [1, 9]: > 32 µg/mL
- MIC [2]: 1 to 8 µg/mL (≈ 2.27 to 18.2 µM)
- MIC [3, 10]: > 32 µg/mL
- MIC [4]: > 32 µg/mL
- MIC [5, 11]: 8 to 32 µg/mL (≈ 18.2 to 72.6 µM)
- MIC [6]: 1 to 8 µg/mL (≈ 2.27 to 18.2 µM)
- MIC [7]: 1 to 8 µg/mL (≈ 2.27 to 18.2 µM)
- IC50 [8]: 10 to 100 nM

SMILES: O=C(c1ccc(C#CC#Cc2ccc(NCc3occc(=O)c3O)cc2)cc1)N1CCC(O)C1 (stereo not drawn) [Compound 45]
- MIC [1, 9]: > 32 µg/mL
- MIC [2]: < 1 µg/mL
- MIC [3, 10]: > 32 µg/mL
- MIC [4]: 8 to 32 µg/mL (≈ 17.6 to 70.4 µM)
- MIC [5, 11]: 1 to 8 µg/mL (≈ 2.2 to 17.6 µM)
- MIC [6]: < 1 µg/mL
- MIC [7]: 1 to 8 µg/mL (≈ 2.2 to 17.6 µM)

SMILES: O=c1ccoc(CNc2ccc(C#CC#Cc3ccccc3)cc2)c1O [Compound 28]
- MIC [1, 9]: > 32 µg/mL
- MIC [2]: 1 to 8 µg/mL (≈ 2.93 to 23.4 µM)
- MIC [3, 10]: > 32 µg/mL
- MIC [4]: > 32 µg/mL
- MIC [5, 11]: 1 to 8 µg/mL (≈ 2.93 to 23.4 µM)
- MIC [6]: 1 to 8 µg/mL (≈ 2.93 to 23.4 µM)
- MIC [7]: 1 to 8 µg/mL (≈ 2.93 to 23.4 µM)
- IC50 [8]: > 100 nM

SMILES: O=C(NCc1cc(=O)c(O)co1)c1ccc(C#Cc2ccccc2)cc1 [Compound 27]
- MIC [1, 9]: > 32 µg/mL
- MIC [2]: > 32 µg/mL
- MIC [3, 10]: > 32 µg/mL
- MIC [4]: > 32 µg/mL
- MIC [5, 11]: > 32 µg/mL
- MIC [6]: > 32 µg/mL
- MIC [7]: > 32 µg/mL

SMILES: N#Cc1ccc(C#Cc2ccc(NCc3occc(=O)c3O)cc2)cc1 [Compound 52]
- MIC [1, 9]: > 32 µg/mL
- MIC [2]: > 32 µg/mL
- MIC [3, 10]: > 32 µg/mL
- MIC [4]: > 32 µg/mL
- MIC [5, 11]: > 32 µg/mL
- MIC [6]: > 32 µg/mL
- MIC [7]: > 32 µg/mL

SMILES: CNC(=O)c1ccc(C#CC#Cc2ccc(NCc3oc(CS(C)(=O)=O)cc(=O)c3O)cc2)cc1 [Compound 4, 4-((4-(((3-hydroxy-6-((methylsulfonyl)methyl)-4-oxo-4H-pyran-2-yl)methyl)amino)phenyl)buta-1,3-diyn-1-yl)-N-methylbenzamide]
- MIC [1, 12]: > 32 µg/mL
- MIC [2]: 8 to 32 µg/mL (≈ 16.3 to 65.2 µM)
- MIC [5, 13]: 1 to 8 µg/mL (≈ 2.04 to 16.3 µM)
- MIC [6]: < 1 µg/mL
- IC50 [8]: > 100 nM

SMILES: N[C@@H]1CN(C(=O)c2ccc(C#CC#Cc3ccc(NCc4occc(=O)c4O)cc3)cc2)CC12CC2 [Compound 49]
- MIC [1, 9]: > 32 µg/mL
- MIC [2]: 1 to 8 µg/mL (≈ 2.09 to 16.7 µM)
- MIC [3, 10]: > 32 µg/mL
- MIC [4]: > 32 µg/mL
- MIC [5, 11]: 1 to 8 µg/mL (≈ 2.09 to 16.7 µM)
- MIC [6]: < 1 µg/mL
- MIC [7]: 1 to 8 µg/mL (≈ 2.09 to 16.7 µM)

SMILES: O=c1ccoc(CNc2ccc(C#Cc3ccc(CN4CCOCC4)cc3)cc2)c1O [Compound 55]
- MIC [1, 9]: > 32 µg/mL
- MIC [2]: 1 to 8 µg/mL (≈ 2.4 to 19.2 µM)
- MIC [3, 10]: > 32 µg/mL
- MIC [4]: 8 to 32 µg/mL (≈ 19.2 to 76.8 µM)
- MIC [5, 11]: 1 to 8 µg/mL (≈ 2.4 to 19.2 µM)
- MIC [6]: 1 to 8 µg/mL (≈ 2.4 to 19.2 µM)
- MIC [7]: 1 to 8 µg/mL (≈ 2.4 to 19.2 µM)
